Type in all cases: biochemical
Experiment [1] deals with human Janus kinase 1 (JAK1), recombinant catalytic domain (Homo sapiens (Human), UniProt P23458). In words: LanthaScreen TR-FRET enzymatic assay, JAK1. Conditions: 1 mM ATP, GFP-STAT1 substrate, read-out: Inhibitory Activity IC50 JAK1. As to the method: (§1) The in vitro inhibition of recombinant human JAKs was determined as follow.
(§2) Compounds were tested in LANTHASCREEN™ time-resolved fluorescence energy transfer (TR-FRET) enzymatic assays from Invitrogen. The human Janus kinase 1 (JAK1) used in the assay is the recombinant JAK1 catalytic domain (amino acids 866-1154) expressed and purified from insect cells (Invitrogen, Cat. No. PV4774). The human Janus kinase 2 (JAK2) used in the assay is the recombinant JAK2 catalytic domain (amino acids 808-1132) expressed and purified from insect cells (Invitrogen, Cat. No. PV4210). The human Janus kinase 3 (JAK3) used in the assay is the recombinant JAK3 catalytic domain (amino acids 781-1124) expressed and purified from insect cells (Invitrogen, Cat. No. PV3855). The human tyrosine kinase 2 (TYK2) used in the assay is the recombinant TYK2 catalytic domain (amino acids 833-1187) expressed and purified from insect cells (Invitrogen, Cat. No. PV4790). The substrate is a recombinant STAT1 expressed as a fusion with GFP (Green Fluorescent Protein) to act as a physiological substrate (Invitrogen, Cat. No. PV5211).
(§3) Test compounds were prepared and diluted in DMSO in 3-fold serial dilutions for 10 doses to 100× of the final testing concentrations. The compounds were then further diluted to 4× by the kinase reaction buffer (Invitrogen, Cat. No. PV3189). The enzymatic reaction for compound testing was performed in a white 384-well polypropylene plate (Packard, Cat. No. 6005214) with a total reaction volume of 10 μL containing 440 ng/mL JAK1, 11 ng/mL JAK2, 400 ng/mL JAK3, or 200 ng/mL TYK2, 100 nM substrate, and 1 mM ATP. The assay started with loading 2.5 μL of JAK1, JAK2, JAK3, or TYK2 diluted in the kinase reaction buffer to wells, followed by addition of an equal volume of 4× compounds for 15-min incubation at room temperature for pre-treatment. The enzymatic reaction was initiated by addition of 5 μL of a mixture of the substrate and ATP prepared in the kinase reaction buffer. After one hour reaction, 10 μL mixture of EDTA (final 10 mM) and terbium-labeled anti-pSTAT1 (pTyr701) antibody (final 2 nM) (Invitrogen, Cat. No. PV4844) prepared in TR-FRET antibody dilution buffer (Invitrogen, Cat. No. PV3574) was added to stop the enzymatic reaction and produce TR-FRET signals. After 30 minutes of incubation at room temperature, the plate was read in Tecan Infinite F200 Pro with the following settings: Excitation 340 nm (30)/Emission1 495 nm (10)/Emission2 520 nm (25). The TR-FRET values were dimensionless numbers that were calculated as the ratio of the acceptor ([…]) signal to the donor (Terbium) signal. Percent of inhibition was calculated as (100%−percentage of compound-treated/DMSO vehicle-treated). The dose-response curves were generated and the IC50s were calculated by nonlinear sigmoid curve fitting using GraphPad Prism.
(§4) In Table 1, A represents a value no greater than 500 nM, B represents a value greater than 500 nM but no greater than 1 μM, C represents a value greater than 1 μM but no greater than 5 μM, and D represents a value greater than 5 μM. In Table 2, A′ represents a ratio of greater than 8, B′ represents a ratio of no greater than 8 but no less than 4, C′ represents a ratio of no greater than 4 but no less than 2, and D′ represents a ratio of no greater than 2. The selectivity is expressed as a ratio of the IC50 values of a compound against two kinases to be compared.

The target in experiment [2] is human Janus kinase 2 (JAK2), recombinant catalytic domain (Homo sapiens (Human), UniProt O60674). In words: LanthaScreen TR-FRET enzymatic assay, JAK2. Conditions: for IC50: TR-FRET, 1 mM ATP, GFP-STAT1 substrate, read-out: Inhibitory Activity IC50 JAK2; for Selectivity JAK2/JAK1: ratio of IC50 against JAK2 over IC50 against JAK1. The protocol: as §1, §2, §3, §4
The subject of experiment [3] is human Janus kinase 3 (JAK3), recombinant catalytic domain. Put plainly: LanthaScreen TR-FRET enzymatic assay, JAK3. Conditions: ratio of IC50 against JAK3 over IC50 against JAK1. The protocol:
as §1, §2, §3, §4

The target in experiment [4] is human Janus kinase 3 (JAK3), recombinant catalytic domain (Homo sapiens (Human), UniProt P52333). In words: LanthaScreen TR-FRET enzymatic assay, JAK3. The conditions noted are these: TR-FRET, 1 mM ATP, GFP-STAT1 substrate; read-out: Inhibitory Activity IC50 JAK3. The protocol:
as §1, §2, §3, §4

In experiment [5] the test system is human tyrosine kinase 2 (TYK2), recombinant catalytic domain. In words: LanthaScreen TR-FRET enzymatic assay, TYK2. The conditions noted are these: ratio of IC50 against TYK2 over IC50 against JAK1. The protocol: as §1, §2, §3, §4
For experiment [6], the target named is human tyrosine kinase 2 (TYK2), recombinant catalytic domain (Homo sapiens (Human), UniProt P29597). In words: LanthaScreen TR-FRET enzymatic assay, TYK2. The conditions noted are these: TR-FRET, 1 mM ATP, GFP-STAT1 substrate; read-out: Inhibitory Activity IC50 TYK2. As to the method:
as §1, §2, §3, §4

SMILES strings stand for the structures.

human Janus kinase 3 (JAK3), recombinant catalytic domain (Homo sapiens (Human), UniProt P52333), sequence (P52333 781-1124): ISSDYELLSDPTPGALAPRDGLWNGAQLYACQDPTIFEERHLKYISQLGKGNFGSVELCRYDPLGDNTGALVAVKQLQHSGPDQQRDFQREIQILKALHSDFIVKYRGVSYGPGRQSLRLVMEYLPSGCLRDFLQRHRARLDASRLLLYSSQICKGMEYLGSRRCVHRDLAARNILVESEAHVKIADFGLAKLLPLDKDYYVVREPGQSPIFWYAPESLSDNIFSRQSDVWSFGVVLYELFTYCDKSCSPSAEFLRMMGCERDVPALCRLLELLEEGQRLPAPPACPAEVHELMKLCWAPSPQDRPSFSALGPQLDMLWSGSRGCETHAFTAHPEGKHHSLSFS
human tyrosine kinase 2 (TYK2), recombinant catalytic domain (Homo sapiens (Human), UniProt P29597), sequence (P29597 833-1187): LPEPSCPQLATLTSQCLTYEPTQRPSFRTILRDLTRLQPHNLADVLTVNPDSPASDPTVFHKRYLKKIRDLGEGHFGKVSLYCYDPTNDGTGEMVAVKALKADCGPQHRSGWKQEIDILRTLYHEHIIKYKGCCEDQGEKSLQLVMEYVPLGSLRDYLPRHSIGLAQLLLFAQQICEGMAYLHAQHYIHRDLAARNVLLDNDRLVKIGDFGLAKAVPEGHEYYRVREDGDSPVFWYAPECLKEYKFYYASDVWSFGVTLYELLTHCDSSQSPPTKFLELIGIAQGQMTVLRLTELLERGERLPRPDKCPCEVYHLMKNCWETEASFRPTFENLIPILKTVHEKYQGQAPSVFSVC
human Janus kinase 2 (JAK2), recombinant catalytic domain, sequence (O60674 808-1132): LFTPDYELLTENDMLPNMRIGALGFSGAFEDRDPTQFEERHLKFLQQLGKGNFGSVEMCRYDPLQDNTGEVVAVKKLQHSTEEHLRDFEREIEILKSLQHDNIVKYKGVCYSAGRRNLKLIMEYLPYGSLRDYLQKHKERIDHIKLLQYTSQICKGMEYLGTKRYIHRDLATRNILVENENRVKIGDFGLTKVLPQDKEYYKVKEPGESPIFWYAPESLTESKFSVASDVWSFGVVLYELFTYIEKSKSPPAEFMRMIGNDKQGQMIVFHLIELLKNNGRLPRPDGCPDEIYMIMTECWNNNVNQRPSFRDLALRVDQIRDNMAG
human Janus kinase 1 (JAK1), recombinant catalytic domain, sequence (P23458 866-1154): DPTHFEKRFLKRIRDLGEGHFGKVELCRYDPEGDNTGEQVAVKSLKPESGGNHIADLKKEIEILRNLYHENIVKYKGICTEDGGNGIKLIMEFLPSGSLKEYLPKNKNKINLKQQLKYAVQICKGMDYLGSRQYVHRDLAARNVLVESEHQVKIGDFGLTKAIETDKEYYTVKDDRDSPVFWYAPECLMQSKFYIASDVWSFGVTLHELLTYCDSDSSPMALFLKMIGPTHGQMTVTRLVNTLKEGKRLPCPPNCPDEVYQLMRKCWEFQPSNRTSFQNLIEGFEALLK

Regarding `O=C(Nc1cn2c(-c3cccc(CN4CCS(=O)(=O)CC4)c3)cccc2n1)C1CC1` [Compound 29], the IC50 in experiment [1], in experiment [2], in experiment [4] and in experiment [6] was > 5 µM throughout. For the same compound, the “Selectivity JAK2/JAK1” value in experiment [2] is recorded as “C′ (C′ represents a ratio of no greater than 4 but no less than 2)”. Further, the “Selectivity JAK3/JAK1” value in experiment [3] is given as “A′ (A′ represents a ratio of greater than 8)”. The “Selectivity TYK2/JAK1” value in experiment [5] is “C′ (C′ represents a ratio of no greater than 4 but no less than 2)”.
As for `O=C(Nc1cn2c(-c3ccc(CN4CCOCC4)cc3)cccc2n1)C1CC1` [Compound 4], the 50% inhibitory concentration (IC50) in experiment [1] is 0.5 to 1 µM; in experiment [2], > 5 µM; in experiment [4], > 5 µM; in experiment [6] it was > 5 µM. The “Selectivity JAK2/JAK1” value in experiment [2] is given as “A′ (A′ represents a ratio of greater than 8)”. In addition, in experiment [3], the “Selectivity JAK3/JAK1” value was “A′ (A′ represents a ratio of greater than 8)”. Also, the “Selectivity TYK2/JAK1” value in experiment [5] is given as “A′ (A′ represents a ratio of greater than 8)”.
For `O=C(Nc1cn2c(-c3ccc(C(=O)N4CCS(=O)(=O)CC4)cc3)cccc2n1)C1CC1` [Compound 13, N-(5-(4-(1,1-Dioxo-1-thiomorpholine-4-carbonyl)phenyl)imidazo[1,2-a]pyridin-2-yl)cyclopropane Carboxamide], the IC50 in experiment [1] is 0.5 to 1 µM; in experiment [2], > 5 µM; in experiment [4], > 5 µM; in experiment [6], > 5 µM. For the same compound, the “Selectivity JAK2/JAK1” value in experiment [2] was “A′ (A′ represents a ratio of greater than 8)”. Also, the “Selectivity JAK3/JAK1” value in experiment [3] was “A′ (A′ represents a ratio of greater than 8)”. In experiment [5], the “Selectivity TYK2/JAK1” value was “A′ (A′ represents a ratio of greater than 8)”.
For `Cc1cc(-c2ccc(CN3CCS(=O)(=O)CC3)cc2)n2cc(NC(=O)C3CC3)nc2c1` [Compound 33], the half-maximal inhibitory concentration (IC50) in experiment [1], in experiment [2], in experiment [4] and in experiment [6] was > 5 µM in each case. For the same compound, the “Selectivity JAK2/JAK1” value in experiment [2] is given as “A′ (A′ represents a ratio of greater than 8)”. In addition, in experiment [3], the “Selectivity JAK3/JAK1” value is reported as “A′ (A′ represents a ratio of greater than 8)”. In experiment [5], the “Selectivity TYK2/JAK1” value was “A′ (A′ represents a ratio of greater than 8)”.
For `CC1(C)CN(Cc2ccc(-c3cccc4nc(NC(=O)C5CC5)cn34)cc2)C1` [Compound 25], the IC50 in experiment [1], in experiment [2], in experiment [4] and in experiment [6] was > 5 µM in each case. In experiment [2], the “Selectivity JAK2/JAK1” value is given as “A′ (A′ represents a ratio of greater than 8)”. Moreover, the “Selectivity JAK3/JAK1” value in experiment [3] is “A′ (A′ represents a ratio of greater than 8)”. Besides, in experiment [5], the “Selectivity TYK2/JAK1” value is “A′ (A′ represents a ratio of greater than 8)”.
As to `Cc1ccc(-c2ccc(CN3CCS(=O)(=O)CC3)cc2)n2cc(NC(=O)C3CC3)nc12` [Compound 35], the IC50 in experiment [1], in experiment [2], in experiment [4] and in experiment [6] was > 5 µM each time.
`N#CCc1ccc(-c2cccc3nc(NC(=O)C4CC4)cn23)cc1` [Compound 11]: the IC50 was ≤ 0.5 µM in experiment [1], > 5 µM in experiment [2], > 5 µM in experiment [4] and > 5 µM in experiment [6]. The “Selectivity JAK2/JAK1” value in experiment [2] was “A′ (A′ represents a ratio of greater than 8)”. For the same compound, the “Selectivity JAK3/JAK1” value in experiment [3] is reported as “A′ (A′ represents a ratio of greater than 8)”. For the same compound, in experiment [5], the “Selectivity TYK2/JAK1” value was “A′ (A′ represents a ratio of greater than 8)”.
On to `CC1(C)CN(C(=O)c2ccc(-c3cccc4nc(NC(=O)C5CC5)cn34)c(F)c2)C1` [Compound 23], for which the IC50 was 0.5 to 1 µM in experiment [1], > 5 µM in experiment [2], > 5 µM in experiment [4] and > 5 µM in experiment [6]. In addition, the “Selectivity JAK2/JAK1” value in experiment [2] is “A′ (A′ represents a ratio of greater than 8)”. The “Selectivity JAK3/JAK1” value in experiment [3] is “A′ (A′ represents a ratio of greater than 8)”. Also, in experiment [5], the “Selectivity TYK2/JAK1” value is on record as “A′ (A′ represents a ratio of greater than 8)”.
In the case of `N#CCc1ccc(-c2cccc3nc(N)cn23)c(F)c1` [Compound 21], the IC50 in experiment [1], in experiment [2], in experiment [4] and in experiment [6] was > 5 µM in each case. Further, in experiment [2], the “Selectivity JAK2/JAK1” value was “A′ (A′ represents a ratio of greater than 8)”. The “Selectivity JAK3/JAK1” value in experiment [3] is reported as “A′ (A′ represents a ratio of greater than 8)”. In addition, the “Selectivity TYK2/JAK1” value in experiment [5] is reported as “C′ (C′ represents a ratio of no greater than 4 but no less than 2)”.
For the compound `Cc1cc(CN2CCS(=O)(=O)CC2)ccc1-c1cccc2nc(NC(=O)C3CC3)cn12` [Compound 12], the half-inhibitory concentration (IC50) is 1 to 5 µM in experiment [1], > 5 µM in experiment [2], > 5 µM in experiment [4] and > 5 µM in experiment [6]. For the same compound, the “Selectivity JAK2/JAK1” value in experiment [2] is reported as “A′ (A′ represents a ratio of greater than 8)”. For the same compound, in experiment [3], the “Selectivity JAK3/JAK1” value is recorded as “A′ (A′ represents a ratio of greater than 8)”. Moreover, the “Selectivity TYK2/JAK1” value in experiment [5] is reported as “A′ (A′ represents a ratio of greater than 8)”.
`N#CC1CCN(Cc2ccc(-c3cccc4nc(NC(=O)C5CC5)cn34)cc2)CC1` [Compound 7]: the IC50 in experiment [1] is 0.5 to 1 µM; in experiment [2] it was > 5 µM; in experiment [4] it was > 5 µM; in experiment [6], > 5 µM. For the same compound, in experiment [2], the “Selectivity JAK2/JAK1” value is “A′ (A′ represents a ratio of greater than 8)”. Besides, the “Selectivity JAK3/JAK1” value in experiment [3] was “A′ (A′ represents a ratio of greater than 8)”. Further, the “Selectivity TYK2/JAK1” value in experiment [5] was “A′ (A′ represents a ratio of greater than 8)”.
With `CN1CCN(Cc2ccc(-c3cccc4nc(NC(=O)C5CC5)cn34)cc2)CC1` [Compound 5], the IC50 in experiment [1], in experiment [2], in experiment [4] and in experiment [6] was > 5 µM each time. Besides, in experiment [2], the “Selectivity JAK2/JAK1” value is given as “A′ (A′ represents a ratio of greater than 8)”. The “Selectivity JAK3/JAK1” value in experiment [3] is “A′ (A′ represents a ratio of greater than 8)”. Also, the “Selectivity TYK2/JAK1” value in experiment [5] is given as “A′ (A′ represents a ratio of greater than 8)”.
Turning to `O=C(Nc1cn2c(-c3ccc(CN4CCS(=O)(=O)CC4)cc3)cccc2n1)C1CCC1` [Compound 3], the IC50 in experiment [1] was 1 to 5 µM; in experiment [2] it was > 5 µM; in experiment [4] it was > 5 µM; in experiment [6], > 5 µM. In experiment [2], the “Selectivity JAK2/JAK1” value is “A′ (A′ represents a ratio of greater than 8)”. For the same compound, the “Selectivity JAK3/JAK1” value in experiment [3] was “A′ (A′ represents a ratio of greater than 8)”. For the same compound, the “Selectivity TYK2/JAK1” value in experiment [5] is reported as “A′ (A′ represents a ratio of greater than 8)”.
With `N#CC1(c2ccc(-c3cccc4nc(NC(=O)C5CC5)cn34)cc2)CC1` [Compound 22], the “Selectivity JAK2/JAK1” value in experiment [2] is reported as “A′ (A′ represents a ratio of greater than 8)”. In addition, in experiment [4], the IC50 is > 5 µM.
For the compound `O=C(Nc1cn2c(-c3ccc(CN4CCS(=O)(=O)CC4)cc3)c(Cl)ccc2n1)C1CC1` [Compound 34], the IC50 in experiment [1], in experiment [2], in experiment [4] and in experiment [6] was > 5 µM in each case.
